This note sets out measurements from US20110135671A1, “PURINE DERIVATIVES FOR USE IN THE TREATMENT OF ALLERGIC, INFLAMMATORY AND INFECTIOUS DISEASES” (GLAXOSMITHKLINE LLC, priority 2008, published 2011).

The test system of the test is Interferon-α. In words: Induction of Interferon-α using cryopreserved human PBMCs. In kind it is cell-based. The settings on record: PBMC, 24 h, normalised to 1 uM resiquimod, read-out: mean pEC50 for induction of Interferon-α (converted). The procedure: Assay for the Induction of Interferon-α using Cryopreserved Human Peripheral Blood Mononuclear Cells (PBMCs)
Compounds were dissolved in DMSO. Serial 2-fold dilutions with DMSO were prepared and 0.25 μl dispensed into 384-well clear Greiner polypropylene plates.
Blood samples of up to 200 ml were obtained from healthy human donors. Whole blood in 25 ml volumes was overlaid onto 15 ml Ficoll gradients in Leucosep tubes, and centrifuged at 1000 g for 20 min. Cells in the band at the plasma/histopaque interface were carefully removed and washed twice with PBS (centrifuged at 400 g for 5 min to harvest). The final pellet was resuspended in freezing medium (90% Heat-inactivated serum, 10% DMSO) to a cell concentration of 4×10^7 cells/ml. The resuspended cells were then cryopreserved (frozen) using a rate controlled freezer, and stored at −140° C. for up to 4 months.
Incubation and Assay for Interferon-α
Immediately prior to assay, vials of cryopreserved (frozen) PBMCs were thawed rapidly in a water bath at 37° C. A 1:10 dilution of the cells in trypan blue was prepared and counted. The PBMCs were then diluted in growth media [RPMI 1640 containing 10% fetal calf serum (invitrogen), Penicillin+Streptavidin (Gibco cat. # 25030-024, 1:50), L-Glutamine 2 mM, and 1000 units/ml recombinant human IFN-gamma (Preprotech catalogue #300-02)] to a density of 1×10^6 cells/ml, and 50 ul/well dispensed to 384-well clear Greiner polypropylene plates containing 0.25 μl DMSO or test compound in 0.25 μl DMSO. […] Plates were incubated for 24 h at 37° C. in 5% CO2.
A multi-isoform immunoassay was used to quantify IFN-α in PBMC supernatants. Rabbit polyclonal antibody against human IFN-α (catalogue number 31101, Stratech Scientific) was diluted 1:10000 in assay buffer (RPMI 1640 containing 10% fetal calf serum, Invitrogen) and 20 μl was added to each well of an MSD (Meso-Scale Discovery) single small-spot 384-well GAR (goat anti-rabbit antibody coated) plate. The plate was incubated for 1 h at room temperature with vigorous shaking. Following three washes with PBS, 20 μl of cell supernatant were added to each well of the plate. The plate was then incubated for 1 h at room temperature with vigorous shaking. A pair of monoclonal antibodies to IFN-α (catalogue numbers 21100 and 21112, Stratech Scientific) were labelled with sulfo-TAG (MSD), diluted 1:1000 in assay buffer and 20 μl added to each well of the plate. The plate was further incubated for 1 h at room temperature with vigorous shaking. Following three washes with PBS, 30 μl of ×2 T buffer (MSD) was added to each well and the plate was read on an MSD Sector 6000 plate reader.
Data were normalised to internal plate controls of 1 uM resiquimod (n=16) and DMSO (n=16). pEC50 values were derived by 4-parameter curve fit with IRLS in ActivityBase, from 11-point, two-fold serial dilution of test compounds.

Structures are written as SMILES.

With `CCCCNc1nc(N)c2[nH]c(=O)n(CCCCN3CCN(CCC)CC3)c2n1` [Example 37, 6-Amino-2-(butylamino)-9-[4-(4-propyl-1-piperazinyl)butyl]-7,9-dihydro-8H-purin-8-one], the EC50 is less than 3.16 µM. With `CCCCNc1nc(N)c2[nH]c(=O)n(CCCCN3CCN(C(C)C)CC3)c2n1` [Example 38, 6-Amino-2-(butylamino)-9-{4-[4-(1-methylethyl)-1-piperazinyl]butyl}-7,9-dihydro-8H-purin-8-one] the figure was less than 3.16 µM.

Take `CCCCNc1nc(N)c2[nH]c(=O)n(CCCCN3CCN(CCCC)CC3)c2n1` [Example 39, 6-Amino-2-(butylamino)-9-[4-(4-butyl-1-piperazinyl)butyl]-7,9-dihydro-8H-purin-8-one]: the EC50 was less than 3.16 µM.

Turning to `CCCCNc1nc(N)c2[nH]c(=O)n(CCCCN3CCN(CC(C)C)CC3)c2n1` [Example 40, 6-Amino-2-(butylamino)-9-{4-[4-(2-methylpropyl)-1-piperazinyl]butyl}-7,9-dihydro-8H-purin-8-one], the EC50 is less than 3.16 µM.

For `CCCCNc1nc(N)c2[nH]c(=O)n(CCCCN3CCN(CC4CC4)CC3)c2n1` [Example 42, 6-Amino-2-(butylamino)-9-{4-[4-(cyclopropylmethyl)-1-piperazinyl]butyl}-7,9-dihydro-8H-purin-8-one], the EC50 was less than 3.16 µM. With `CCCCNc1nc(N)c2[nH]c(=O)n(CCCCN3CCN(C4CCCC4)CC3)c2n1` [Example 43, 6-Amino-2-(butylamino)-9-[4-(4-cyclopentyl-1-piperazinyl)butyl]-7,9-dihydro-8H-purin-8-one] the figure was less than 3.16 µM; with `CCCCNc1nc(N)c2[nH]c(=O)n(CCCCN3CCN(C4CCCCC4)CC3)c2n1` [Example 44, 6-Amino-2-(butylamino)-9-[4-(4-cyclohexyl-1-piperazinyl)butyl]-7,9-dihydro-8H-purin-8-one], less than 3.16 µM; with `CCCCOc1nc(N)c2[nH]c(=O)n(CCCCCN3CCNCC3)c2n1` [Example 45, 6-Amino-2-(butyloxy)-9-[5-(1-piperazinyl)pentyl]-7,9-dihydro-8H-purin-8-one], less than 3.16 µM. Take `CCCCOc1nc(N)c2[nH]c(=O)n(CCCCCN3CCN(CC)CC3)c2n1` [Example 47, 6-Amino-2-(butyloxy)-9-[5-(4-ethyl-1-piperazinyl)pentyl]-7,9-dihydro-8H-purin-8-one]: the EC50 was less than 3.16 µM. The value for `CCC[C@H](C)Oc1nc(N)c2[nH]c(=O)n(CCCCCN3CCNCC3)c2n1` [Example 49, 6-Amino-2-{[(1S)-1-methylbutyl]oxy}-9-[5-(1-piperazinyl)pentyl]-7,9-dihydro-8H-purin-8-one] was less than 3.16 µM; that for `CCC[C@H](C)Oc1nc(N)c2[nH]c(=O)n(CCCCCN3CCN(C)CC3)c2n1` [Example 50, 6-Amino-2-{[(1S)-1-methylbutyl]oxy}-9-[5-(4-methyl-1-piperazinyl)pentyl]-7,9-dihydro-8H-purin-8-one] was less than 3.16 µM; that for `CCC[C@H](C)Oc1nc(N)c2[nH]c(=O)n(CCCCCN3CCN(CC)CC3)c2n1` [Example 51, 6-Amino-9-[5-(4-ethyl-1-piperazinyl)pentyl]-2-{[(1S)-1-methylbutyl]oxy}-7,9-dihydro-8H-purin-8-one] was less than 3.16 µM. The value for `CCC[C@H](C)Oc1nc(N)c2[nH]c(=O)n(CCCCCN3CCN(C(C)(C)C)CC3)c2n1` [Example 53, 6-Amino-9-{5-[4-(1,1-dimethylethyl)-1-piperazinyl]pentyl}-2-{[(1S)-1-methylbutyl]oxy}-7,9-dihydro-8H-purin-8-one] was less than 3.16 µM; that for `CCCCOc1nc(N)c2[nH]c(=O)n(CCCCCCN3CCN(C)CC3)c2n1` [Example 55, 6-Amino-2-(butyloxy)-9-[6-(4-methyl-1-piperazinyl)hexyl]-7,9-dihydro-8H-purin-8-one] was less than 3.16 µM. In the case of `CCCCOc1nc(N)c2[nH]c(=O)n(CCCCCCN3CCN(CC)CC3)c2n1` [Example 56, 6-Amino-2-(butyloxy)-9-[6-(4-ethyl-1-piperazinyl)hexyl]-7,9-dihydro-8H-purin-8-one], the EC50 is less than 3.16 µM. The value for `CCCCOc1nc(N)c2[nH]c(=O)n(CCCCCN3CCN(CCCC)CC3)c2n1` [Example 59, 6-Amino-2-(butyloxy)-9-[5-(4-butyl-1-piperazinyl)pentyl]-7,9-dihydro-8H-purin-8-one] was less than 3.16 µM; that for `CCCCCN1CCN(CCCCCn2c(=O)[nH]c3c(N)nc(OCCCC)nc32)CC1` [Example 60, 6-Amino-2-(butyloxy)-9-[5-(4-pentyl-1-piperazinyl)pentyl]-7,9-dihydro-8H-purin-8-one] was less than 3.16 µM; that for `CCCCOc1nc(N)c2[nH]c(=O)n(CCCCCN3CCN(C(C)(C)C)CC3)c2n1` [Example 61, 6-Amino-2-(butyloxy)-9-{5-[4-(1,1-dimethylethyl)-1-piperazinyl]pentyl}-7,9-dihydro-8H-purin-8-one] was less than 3.16 µM.

For the compound `CCCCOc1nc(N)c2[nH]c(=O)n(CCCCCN3CCN(C4CCCC4)CC3)c2n1` [Example 63, 6-Amino-2-(butyloxy)-9-[5-(4-cyclopentyl-1-piperazinyl)pentyl]-7,9-dihydro-8H-purin-8-one], the EC50 is less than 3.16 µM. With `CCCCOc1nc(N)c2[nH]c(=O)n(CCCCCN3CCN(C4CCCCC4)CC3)c2n1` [Example 64, 6-Amino-2-(butyloxy)-9-[5-(4-cyclohexyl-1-piperazinyl)pentyl]-7,9-dihydro-8H-purin-8-one] the figure was less than 3.16 µM; with `CCCCOc1nc(N)c2[nH]c(=O)n(CCCCCN3CCN(CC4CC4)CC3)c2n1` [Example 65, 6-Amino-2-(butyloxy)-9-{5-[4-(cyclopropylmethyl)-1-piperazinyl]pentyl}-7,9-dihydro-8H-purin-8-one], less than 3.16 µM; with `CCCCOc1nc(N)c2[nH]c(=O)n(CCCCCN3CCN(CC4CCCC4)CC3)c2n1` [Example 66, 6-Amino-2-(butyloxy)-9-{5-[4-(cyclopentylmethyl)-1-piperazinyl]pentyl}-7,9-dihydro-8H-purin-8-one], less than 3.16 µM. The value for `CCCCOc1nc(N)c2[nH]c(=O)n(CCCCN3CCNCC3)c2n1` [Example 67, 6-Amino-2-(butyloxy)-9-[4-(1-piperazinyl)butyl]-7,9-dihydro-8H-purin-8-one] was less than 3.16 µM; that for `CC[C@H](C)Oc1nc(N)c2[nH]c(=O)n(CCCCN3CCN(C(C)C)CC3)c2n1` [Example 68, 6-Amino-9-{4-[4-(1-methylethyl)-1-piperazinyl]butyl}-2-{[(1S)-1-methylpropyl]oxy}-7,9-dihydro-8H-purin-8-one] was less than 3.16 µM. Take `CCCC[C@H](C)Oc1nc(N)c2[nH]c(=O)n(CCCCN3CCN(C(C)C)CC3)c2n1` [Example 69, 6-Amino-9-{4-[4-(1-methylethyl)-1-piperazinyl]butyl}-2-{[(1S)-1-methylpentyl]oxy}-7,9-dihydro-8H-purin-8-one]: the EC50 was less than 3.16 µM. With `CC(C)Oc1nc(N)c2[nH]c(=O)n(CCCCCN3CCN(C(C)C)CC3)c2n1` [Example 70, 6-Amino-2-[(1-methylethyl)oxy]-9-{5-[4-(1-methylethyl)-1-piperazinyl]pentyl}-7,9-dihydro-8H-purin-8-one] the figure was less than 3.16 µM; with `CC(C)N1CCN(CCCCn2c(=O)[nH]c3c(N)nc(OC4CCC4)nc32)CC1` [Example 71, 6-Amino-2-(cyclobutyloxy)-9-{4-[4-(1-methylethyl)-1-piperazinyl]butyl}-7,9-dihydro-8H-purin-8-one], less than 3.16 µM. With `CC(C)N1CCN(CCCCn2c(=O)[nH]c3c(N)nc(OC4CCCC4)nc32)CC1` [Example 72, 6-Amino-2-(cyclopentyloxy)-9-{4-[4-(1-methylethyl)-1-piperazinyl]butyl}-7,9-dihydro-8H-purin-8-one] the figure was less than 3.16 µM; with `CC(C)N1CCN(CCCCn2c(=O)[nH]c3c(N)nc(OC4CCCCC4)nc32)CC1` [Example 73, 6-Amino-2-(cyclohexyloxy)-9-{4-[4-(1-methylethyl)-1-piperazinyl]butyl}-7,9-dihydro-8H-purin-8-one], less than 3.16 µM; with `CCC[C@@H](C)Nc1nc(N)c2[nH]c(=O)n(CCCCN3CCN(C(C)C)CC3)c2n1` [Example 74, 6-Amino-2-{[(1R)-1-methylbutyl]amino}-9-{4-[4-(1-methylethyl)-1-piperazinyl]butyl}-7,9-dihydro-8H-purin-8-one], less than 3.16 µM.
